Legend:
Assay type in all cases: cell-based, human
[1] = test system: gastric (AGS) cancer cell line; test: MTS proliferation assay, AGS; details: for viability (anti-proliferative activity), MTS: as a function of time, triplicate
Description: (§1) FIGS. 10A-10F compare anti-proliferative activity of 10 nmoles of compounds −0045 and −0052 against gastric (AGS) (FIGS. 10B and 10C, respectively) and pancreatic (ASPC1) (FIGS. 10E and 10F, respectively) cancer cell lines, as measured as a function of time and compared to palbociclib (−000) (FIGS. 10A-AGS; and 10D-ASPC1) using standard MTS assays in the indicated cell lines; results were in triplicate with reported experimental uncertainty.
(§2) FIGS. 11A-11F compare anti-proliferative activity of 5 nmoles of compounds −0045 and −0052 against gastric (AGS) (FIGS. 11B and 11C, respectively) and pancreatic (ASPC1) (FIGS. 11E and 11F, respectively) cancer cell lines, as measured as a function of time and compared to palbociclib (−000) (FIGS. 11A-AGS; and 11D-ASPC1), using standard MTS assays in the indicated cell lines; results were in triplicate with reported experimental uncertainty.
(§3) The anti-proliferative activity of compounds −0045 and −0052 in two cell lines characterized by high levels of miR-21 (gastric adenocarcinoma (AGS) and pancreatic (ASPC1) cancer origin) was determined. These experiments were conducted in a double-blind format, without knowledge of the identity or binding activity of the compounds, to avoid any unintentional bias. […] Viability in the presence of both palbociclib and compound −0052 is decreased after approximately 72-96 hrs to a statistically significant extent (data points marked with asterisks are statistically significant).
(§4) Cell line maintenance. Using the Cancer Cell Line Encyclopedia (CCLE), in-house cancer cell lines were screened to identify cancer and tissue types with varying levels of miR-21 expression. Experiments were performed using the human-derived cell lines AGS (gastric cancer) and AsPC-1 (pancreatic cancer). Cell lines were obtained from the American Type Culture Collection and maintained per instructions from the supplier. AGS were cultured in F12K medium supplemented with 10% FBS. AsPC-1 were cultured in RPMI, with 10% FBS added. All cells were kept at 37° C. in a humidified atmosphere of 5% CO2 and underwent regular mycoplasma testing. All experiments were conducted when cells were 70-80% confluent.
(§5) Proliferation assay. The impact of the compound on cellular proliferation was assessed, with 5,000 cells in each cell line seeded in replicates of 6 in a 96 well plate and treated with DMSO or with compounds. After 48 hours, cells were treated with the MTS reagent and optical density was read to generate dose-response curves.

[2] = test system: pancreatic (ASPC1) cancer cell line; test: MTS proliferation assay, ASPC1; details: for viability (anti-proliferative activity), MTS: as a function of time, triplicate
Description: as §1, §2, §3, §4, §5

[3] = test system: mature miR-21 and pre-miR-21 in AGS cells; test: qRT-PCR of mature miR-21 and pre-miR-21 in AGS cells; details: 10 nmoles, 48 hours, relative to DMSO control
Procedure: (§6) FIGS. 13A-13D compare levels of mature miR-21 and pre-mi-21 measured in gastric adenocarcinoma (AGS) (FIGS. 13A and 13B, respectively) and pancreatic cancer cell line (ASPC 1) (FIGS. 13C and 13D, respectively), normalized to internal controls (U6 or U8 snRNA), in the presence of 10 nmoles of palbociclib (used here as a negative control, not expected to affect microRNA levels) and compounds −0045 and −0052, 48 hours after incubation, relative to DMSO control, and measured by standard qRT-PCR. Statistically significant changes are labeled with asterisks.
(§7) Levels of mature miR-21 and its precursor pre-miR-21 were measured in gastric carcinoma (ASG) and pancreatic (ASPC1) cancer cell lines under conditions where we observed a decrease in proliferation (FIGS. 13A-13D), using the same blind format described above.
as §4
(§8) Quantitative real time PCR analysis. RNA was isolated utilizing Trizol (Invitrogen) and the Direct-zol RNA Miniprep kit (Zymo Research). RNA concentration was assessed with the NanoDrop ND-1000 spectrophotometer (ThermoFisher Scientific). All microRNAs expression was tested in the two representative cell lines using qRT-PCR. Cells were seeded in 6-well plates 24 hours before treatment, at a cell confluency of 50-60%. Each cell line was treated with 10 μM compound or with only the dimethyl sulfoxide (DMSO) solvent. RNA was collected after the 48-hour time point. Expression of miR-21 was assessed utilizing the TaqMan microRNA assay (Applied Biosystems). The complementary DNA (cDNA) was synthesized using the TaqMan Reverse Transcription Reagents kit (Applied Biosystems) and was used with the TaqMan probes and Supermix (BioRad) for qRT-PCR analysis. U6 or U48 were used as internal controls for RNA levels. All experiments were performed in triplicate, with all samples normalized to the internal controls and relative expression levels calculated using the 2^ΔΔCt method.

[4] = test system: mature miR-21 and pre-miR-21 in ASPC1 cells; test: qRT-PCR of mature miR-21 and pre-miR-21 in ASPC1 cells; details: ASPC1, 10 nmoles, 48 hours, relative to DMSO control
Procedure: as §6, §7, §4, §8

| Structure (SMILES) | viability (anti-proliferative activity), MTS ([1]; 5 nmoles of compound) | viability (anti-proliferative activity), MTS ([1]; 10 nmoles of compound) | viability (anti-proliferative activity), MTS ([2]; ASPC1, 5 nmoles of compound) | viability (anti-proliferative activity), MTS ([2]; ASPC1, 10 nmoles of compound) | decrease in mature miR-21 levels [3] | pre-miR-21 levels [3] | decrease in mature miR-21 levels [4] | pre-miR-21 levels [4] | cell killing activity, MTS over 6 days ([1]; both concentrations tested (10 and 5 nmols), double-blind) | cell killing activity, MTS over 6 days ([2]; ASPC1, both concentrations tested (10 and 5 nmols), double-blind) |
| --- | --- | --- | --- | --- | --- | --- | --- | --- | --- | --- |
| O=c1[nH]c(Nc2ccc(N3CCNCC3)cn2)nc2cccnc12 [Compound 25] | does not | does not | does not | does not | 40% | reduction in pre-miR-21 levels | 40% | reduction in pre-miR-21 levels |  |  |
| O=c1[nH]c(Nc2ccc(N3CCNCC3)cn2)nc2cnccc12 [Compound 30] | reduce the viability of both cell lines to a statistically significant extent | reduce the viability of both cell lines to a statistically significant extent | reduce the viability of both cell lines to a statistically significant extent | reduce the viability of both cell lines to a statistically significant extent | 40% | reduction in pre-miR-21 levels | 40% | reduction in pre-miR-21 levels | Cell killing activity | Cell killing activity |
